{
  "source": "patent US20240294535A1",
  "about": "“IMIDAZOTRIAZINE THIOBENZAMIDE DERIVATIVE, AND PREPARATION METHOD AND APPLICATION THEREOF” (Yunbaiyao Zhengwu Science and Technology (Shanghai) Co., …, priority 2023, published 2024)",
  "key": {"[1]": {"system": "Vero cells", "assay": "Anti-proliferation activity, CTG, Vero cells", "assay_type": "cell-based", "settings": "Chlorocebus sabaeus; Vero cells, 48 h, CTG", "method": "(§1) Experimental objective: To evaluate the anti-proliferation activities of the compounds against MKN-45 cells, EBC-1 cells, Hs746T cells and Vero cells.\n(§2) Experimental methods: Tumor cell lines were cultured and periodically passaged, and cells in logarithmic growth phase were taken for plate spreading. The cells were stained with Trypan blue, counted and adjusted to an appropriate density. 50 μL of cell suspension was added into each well of a culture plate, and 50 μL of nutrient solution without cells was added into a blank control well. The culture plate was precultured for 24 h in an incubator under the condition of 37° C., 5% CO2 and 100% relative humidity.\n(§3) The DMSO stock solutions of the compounds 1-28 and Capmatinib were prepared, and diluted with Tecan D300e. Each compound was diluted to 7 concentration levels: 0.50 μM, 0.125 μM, 0.031 μM, 0.0078 μM, 0.0020 μM, 0.00049 μM, 0.00012 μM. The experiment was carried out in triplicate.\n(§4) 50 μL of the solution was added into each designated well, and the culture plate was incubated for 48 h. 50 μL of CTG working solution was added to each well. The culture plate was wrapped with aluminum foil to avoid light and shaken in the shaker for 2 min to induce cell lysis. The culture plate was placed at room temperature for 10 min to stabilize light-emitting signal which was detected with a 2014 EnVision plate reader. Experimental data was processed by GraphPad Prism 7 to calculate IC50."}, "[2]": {"system": "human EBC-1 cell subcutaneous xenograft model", "assay": "In vivo anti-tumor assessment in EBC-1 cell xenograft tumor mouse model", "set-up": "species or system mice", "settings": "10 mg/kg P.O. QD × 15 days", "method": "Experimental objective: To investigate in vivo efficacy of representative compounds on human lung squamous carcinoma cell (human EBC-1 cell) subcutaneous xenograft model.\nExperimental methods: The EBC-1 cell xenograft tumor mouse model was used, according to the diameters of tumor, the tumor volume (TV), relative tumor volume (RTV), relative tumor proliferation rate (T/C (%)) and tumor growth inhibition value (TGI (%)) were calculated.\nTGI (%) or T/C (%) of the compounds was evaluated. TGI (%) reflects a tumor growth inhibitory rate. TGI (%) was calculated as follows: TGI (%)=[1−(average tumor volume at the end of administration in a treatment group-average tumor volume at the beginning of administration in the treatment group)/(average tumor volume at the end in a solvent control group-average tumor volume at the beginning in the solvent control group)]×100%.\nT/C (%) was calculated as follows: T/C (%)=TRTV/CRTV×100%; where TRTV is treatment RTV, and CRTV is negative control RTV. According to the measurement results of the tumor, RTV was calculated, and the calculating formula for RTV is as follows: RTV=Vt/V0; where V0 is the average tumor volume measured on the day of first administration; and Vt is the average tumor volume measured on a specified day. TRTV and CRTV were measured on the same day."}, "[3]": {"system": "EBC-1 cells", "assay": "Anti-proliferation activity, CTG, EBC-1 cells", "assay_type": "cell-based, human", "settings": "Homo sapiens; EBC-1 cells, 48 h, CTG", "method": "as §1, §2, §3, §4"}, "[4]": {"system": "MKN-45 cells", "assay": "Anti-proliferation activity, CTG, MKN-45 cells", "assay_type": "cell-based", "settings": "Homo sapiens; MKN-45 cells, 48 h, CTG", "method": "as §1, §2, §3, §4"}, "[5]": {"molecular_target": "c-MET (Homo sapiens (Human), UniProt P08581)", "sequence (P08581 25-1390)": "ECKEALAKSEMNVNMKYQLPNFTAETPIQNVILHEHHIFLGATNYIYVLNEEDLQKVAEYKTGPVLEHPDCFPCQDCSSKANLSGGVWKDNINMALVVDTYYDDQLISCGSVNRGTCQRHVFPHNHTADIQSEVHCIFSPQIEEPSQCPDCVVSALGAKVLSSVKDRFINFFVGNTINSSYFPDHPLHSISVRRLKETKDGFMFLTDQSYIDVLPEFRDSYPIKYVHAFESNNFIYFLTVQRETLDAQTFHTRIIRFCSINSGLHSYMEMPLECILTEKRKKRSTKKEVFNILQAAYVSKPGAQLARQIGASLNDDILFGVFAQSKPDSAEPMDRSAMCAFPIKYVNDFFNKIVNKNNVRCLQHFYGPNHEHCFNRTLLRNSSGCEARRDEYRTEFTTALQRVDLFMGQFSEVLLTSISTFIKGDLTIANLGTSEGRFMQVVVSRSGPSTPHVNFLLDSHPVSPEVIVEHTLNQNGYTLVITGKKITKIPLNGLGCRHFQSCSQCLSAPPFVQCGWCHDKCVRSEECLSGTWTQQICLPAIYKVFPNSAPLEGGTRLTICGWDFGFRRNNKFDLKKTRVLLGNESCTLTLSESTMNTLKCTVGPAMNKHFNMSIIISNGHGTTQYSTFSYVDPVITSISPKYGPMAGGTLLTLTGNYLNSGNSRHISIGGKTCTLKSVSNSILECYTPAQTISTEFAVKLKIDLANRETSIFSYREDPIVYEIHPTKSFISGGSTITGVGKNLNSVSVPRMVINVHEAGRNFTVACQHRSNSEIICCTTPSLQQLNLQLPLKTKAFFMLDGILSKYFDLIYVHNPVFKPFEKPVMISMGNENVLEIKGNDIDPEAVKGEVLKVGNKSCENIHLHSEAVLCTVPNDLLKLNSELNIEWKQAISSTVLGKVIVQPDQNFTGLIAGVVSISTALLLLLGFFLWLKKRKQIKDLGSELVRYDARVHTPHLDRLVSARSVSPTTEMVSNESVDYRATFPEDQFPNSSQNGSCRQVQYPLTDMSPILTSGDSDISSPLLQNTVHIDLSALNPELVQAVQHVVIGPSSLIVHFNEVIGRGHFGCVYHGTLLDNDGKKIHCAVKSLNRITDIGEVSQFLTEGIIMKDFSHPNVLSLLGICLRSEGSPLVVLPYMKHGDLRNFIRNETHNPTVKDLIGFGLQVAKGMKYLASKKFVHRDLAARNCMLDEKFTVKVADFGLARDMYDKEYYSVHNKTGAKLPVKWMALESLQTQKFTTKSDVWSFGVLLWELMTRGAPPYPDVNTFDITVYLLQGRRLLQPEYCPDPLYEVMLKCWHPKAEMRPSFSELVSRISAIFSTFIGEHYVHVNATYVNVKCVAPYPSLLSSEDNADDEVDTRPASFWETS", "assay": "c-MET kinase inhibitory activity (ELISA, poly(Glu,Tyr) substrate)", "assay_type": "biochemical", "settings": "ATP 4 μM, 37° C. 1 h; read-out: c-MET kinase inhibitory enzymatic activity IC50"}, "[6]": {"assay": "in vivo", "settings": "both, Kunming, mouse, po"}, "[7]": {"system": "Hs746T cells", "assay": "Anti-proliferation activity, CTG, Hs746T cells", "assay_type": "cell-based", "settings": "Homo sapiens; Hs746T cells, 48 h, CTG", "method": "as §1, §2, §3, §4"}},
  "data": [
    {"molecule": "CNC(=S)c1ccc(-c2cnc3ncc(Cc4ccc5nccnc5c4)n3n2)cc1F", "note": "[Compound 17]", "values": [
      {"measurement": "IC50", "setting": "[1]", "value": 123, "unit": "nM"},
      {"measurement": "T/C(%)", "setting": "[2]", "value": 20.42, "unit": "%"},
      {"measurement": "TGI(%)", "setting": "[2]", "value": 96.76, "unit": "%"},
      {"measurement": "Tumor Volume (Day 15)", "setting": "[2]; Day 15", "value": "184 ± 27", "unit": "mm^3"},
      {"measurement": "inhibition of growth of the tumor in mice (tumor volume change)", "setting": "[2]; end of the experiment, FIG. 2", "value": "better inhibitory effects"},
      {"measurement": "IC50", "setting": "[3]", "value": 1.6, "unit": "nM"},
      {"measurement": "IC50", "setting": "[4]", "value": 1.2, "unit": "nM"},
      {"measurement": "IC50", "setting": "[5]", "value": 0.0016, "unit": "nM"},
      {"measurement": "LD50", "setting": "[6]", "value": 318, "unit": "mg/kg"},
      {"measurement": "IC50", "setting": "[7]", "value": 1.2, "unit": "nM"}
    ]}
  ]
}
